Patent US5840893A, “Compounds for treating infectious diseases” (priority 1996, dated 1998)

Experiments:
HIV-1 = experiment: AZT and Compound No. 2 in combination on HIV-1 infected monocyte cultures (RT activity); assay type: cell-based, HIV-1 in human monocyte cultures; details: for RT activity: 100 nM Compound No. 2, AZT 0
Protocol: Primary human monocytes were obtained from peripheral blood by Ficoll-Hypaque centrifugation and adherence to plastic as described previously. Gartner S. P., et al., 1986, Science 233:215. Briefly, after Ficoll-Hypaque (Pharmacia) separation, PBMCs were washed 4 times with DMEM (the last wash was done at 800 rpm to remove platelets) and resuspended in monocyte culture medium [DMEM supplemented with 1 mM glutamine, 10% heat-inactivated human serum, 1% penicillin+streptomycin mixture (Sigma)] at a density of 6×10^6 cells/ml. Cells were seeded in 24-well plates (1 ml per well) and incubated for 2 h at 37° C., 5% CO2. Following incubation, cells were washed 3 times with DMEM to remove non-adherent cells and incubation was continued in monocyte culture medium supplemented with 250 U/ml human M-CSF (Sigma). Cells were allowed to mature for 7 days prior to infection with the monocyte-tropic strain, HIV-1ADA. Nuovo, G. J., et al., 1992, Diagn. Mol. Pathol. 1:98. Two hours after infection, cells were washed with medium and cultured in RPMI supplemented with 10% human serum. In experiments where PCR analysis was performed, virus was pretreated with RNAse-free DNAse (Boehinger-Mannheim)for 2 h at room temperature and then filtered though a 0.2 μm pore nitrocellulose filter prior to infection.
For the reverse transcriptase (RT) assay, 10 μl of culture supernatant was added to 40 μl of reaction mixture (final composition was 50 mM Tris-HCl, pH 7.8; 20 mM KCl; 5 mM MgCl2; 1 mM DTT; 0.1% Triton X-100; 0.2 OD/ml polyA; 0.2 OD/ml oligo(dT)12-18; and 40 μCi/ml ^3 H-dTTP (76 Ci/mmol, DuPont) and incubated 2 hr at 37° C. 5 μl of the reaction mixture was then spotted onto the DE 81 (Whatman) paper. Paper was air dried and washed 5 times with 5% Na2 HPO4, followed by rinsing with distilled water. After air drying, paper was put on a Flexi Filter plate (Packard), covered with scintillation fluid and counted in a Top Count Microplate Counter (Packard). Results are expressed as counts per minute in 1 ml of supernatant (cpm/ml).
In view of these premises, the effects on HIV-1 replication in human monocyte cultures of the various concentrations of AZT, alone or in combination with 100 nM Compound No. 2, were tested using the protocols of Sections 6.2.1 and 6.2.2. Drugs were added to the monocyte cultures together with HIV-1 at about 10^5 TCID/ml. The concentration of drugs was maintained on refeeding. HIV-1 replication was assessed by assay of the supernatant for reverse transcriptase activity. The results are expressed as mean±std. dev. (cpmx10^-3) in Table V.

[1] = tested on: nuclear importation of HIV-1 preintegration complexes; experiment: Nuclear importation of HIV-1 preintegration complexes (2-LTR circle PCR) in primary human monocytes; assay type: cell-based, HIV-1ADA in primary human monocytes; details: Monocyte, 100 nM, 48 and 96 hours post infection
Excerpt: The effects of Compound No. 2 on the nuclear importation of HIV-1 preintegration complexes can be directly measured by detecting the presence of circularized duplex HIV-1 genomic DNA. These duplex circles can be readily detected by PCR amplification using primers which span the junction of the circularized HIV-1 genome. Bukrinsky, M. I., et al., 1992, Proc.Natl.Acad.Sci. 89:6580-84.
Briefly, the efficiency of nuclear translocation was estimated by the ratio between the 2-LTR- and pol-specific PCR products, which reflects the portion of 2-LTR circle DNA molecules as a fraction of the entire pool of intracellular HIV-1 DNA. Viral 2-LTR circle DNA is formed exclusively within the nucleus of infected cells and thus is a convenient marker of successful nuclear translocation. […]
Total DNA was extracted from HIV-1-infected cells using the IsoQuick extraction kit (Microprobe Corp., Garden Grove, Calif.). DNA was then analyzed by PCR using primer pairs that amplify the following sequences: a fragment of HIV-1 (LTR/gag) that is the last one to be synthesized during reverse transcription and therefore represents the pool of full-length viral DNA molecules; a fragment of polymerase gene (pol); a 2-LTR junction region found only in HIV-1 2-LTR circle DNA molecules; or a fragment of the cellular a-tubulin gene. […]

CC(=O)c1cc(Nc2cc(C)[n+](C)c(N)n2)cc(C(C)=O)c1.[I-] [Compound No. 2, 2-amino-4-(3,5-diacetylphenyl)amino-1,6-dimethylpyrimidinium iodide] was tested, and the inhibition at 0.1 µM (HIV-1; Human immunodeficiency virus 1, Monocyte, 264 h, day-11, 100 nM Compound No. 2 alone, read-out: reduction in RT activity) was about 60%, the RT activity (HIV-1; day-7) was 0.37 ± 0.07 cpmx10^-3 and the RT activity (HIV-1; day-11) was 0.72 ± 0.30 cpmx10^-3. For the same compound, the inhibition at 0.1 µM [1] was over 90% and the activity at 0.1 µM ([1]; relative to drug free control, read-out: Translocation Index) was under 10%.
